From ChEMBL document CHEMBL1146430, “Alternatamides A-D: new bromotryptamine peptide antibiotics from the Atlantic marine bryozoan Amathia alternata” (1997)

Legend:
Assay type in all cases: functional
Staphylococcus aureus = assay: Antibacterial activity against Staphylococcus aureus
[1] = system: Staphylococcus epidermidis; assay: Antibacterial activity against Staphylococcus epidermidis
Enterococcus faecium = assay: Antibacterial activity against Enterococcus faecium
Bacillus subtilis = assay: Antibacterial activity against Bacillus subtilis
[2] = system: Staphylococcus haemolyticus; assay: Antibacterial activity against Staphylococcus haemolyticus
Enterococcus faecalis = assay: Antibacterial activity against Enterococcus faecalis
Streptococcus pyogenes = assay: Antibacterial activity against Streptococcus pyogenes

Measured: MIC

CN[C@@H](CC(C)C)C(=O)NCCc1c(Br)[nH]c2ccc(Br)cc12 [ALTEMATAMIDE C]
4 µg/mL: Staphylococcus aureus | [1] | Enterococcus faecium | Bacillus subtilis | [2] | Enterococcus faecalis | Streptococcus pyogenes

CN[C@@H](CC(C)C)C(=O)NCCc1c(Br)n(C)c2cc(Br)c(Br)cc12 [ALTEMATAMIDE A]
4 µg/mL: Staphylococcus aureus | [1] | Enterococcus faecium | Bacillus subtilis | [2] | Enterococcus faecalis | Streptococcus pyogenes

CN[C@@H](CC(C)C)C(=O)NCCc1c(Br)[nH]c2cc(Br)c(Br)cc12 [ALTEMATAMIDE B]
4 µg/mL: Staphylococcus aureus | [1] | Enterococcus faecium | Bacillus subtilis | [2] | Enterococcus faecalis | Streptococcus pyogenes
